Experimental data reported in patent US11944622B2 (Annapurna Bio, Inc., priority 2018, dated 2024).
pEC50: −log10 of the molar value.

Biological target: T1, APJ Receptor (Homo sapiens, UniProt P35414)
T1 sequence (P35414 1-380): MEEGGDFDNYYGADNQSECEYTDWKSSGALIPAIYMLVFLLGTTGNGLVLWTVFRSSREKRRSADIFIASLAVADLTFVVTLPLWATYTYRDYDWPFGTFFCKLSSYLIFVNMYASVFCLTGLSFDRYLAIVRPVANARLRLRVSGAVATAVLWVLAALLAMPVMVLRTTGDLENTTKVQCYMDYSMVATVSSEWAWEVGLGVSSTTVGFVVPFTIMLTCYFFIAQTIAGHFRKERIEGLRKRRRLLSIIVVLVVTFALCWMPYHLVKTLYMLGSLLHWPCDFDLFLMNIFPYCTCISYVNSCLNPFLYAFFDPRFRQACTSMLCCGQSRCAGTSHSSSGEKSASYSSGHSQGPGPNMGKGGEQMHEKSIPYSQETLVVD
Assay: APJ cAMP assay (DiscoverX enzyme fragment complementation; inhibition of forskolin-stimulated cAMP)
Assay type: cell-based
Conditions: CHO-K1 cell line stably expressing the APJ Receptor; EC80 forskolin; 30 minutes at 37° C.; read-out: Potency Range (APJ cAMP EC50)
How it was run: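 CHO-K1 cells stably expressing APJ incubated with compound plus EC80 forskolin for 30 min at 37° C. cAMP detected by β-galactosidase enzyme fragment complementation with chemiluminescent read-out; % activity calculated relative to vehicle and maximal controls.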

SMILES	pEC50
CCOc1cccc(-c2nc3nc(Cl)c(NS(=O)(=O)Cc4cccc(F)c4)nc3n2-c2c(OC)cccc2OC)n1 [Example 143, N-(5-Chloro-1-(2,6-dimethoxyphenyl)-2-(6-ethoxypyridin-2-yl)-1H-imidazo[4,5-b]pyrazin-6-yl)-1-(3-fluorophenyl)methanesulfonamide]	7.00 to 9.00
CCOc1cccc(-c2nc3nnc(NS(=O)(=O)Cc4ncc(Cl)cn4)cc3n2-c2c(OC)cccc2OC)n1 [Example 144, 1-(5-Chloropyrimidin-2-yl)-N-(7-(2,6-dimethoxyphenyl)-8-(6-ethoxypyridin-2-yl)-7H-imidazo[4,5-c]pyridazinyl)methanesulfonamide]	> 9.00
CCOc1cccc(-c2nc3nc(N)c(NS(C)(=O)=O)nc3n2-c2c(OC)cccc2OC)n1 [Example 145, N-(5-Amino-1-(2,6-dimethoxyphenyl)-2-(6-ethoxypyridin-2-yl)-1H-imidazo[4,5-b]pyrazin-6-yl)methanesulfonamide]	7.00 to 9.00
CCOc1cccc(-c2nc3nc(F)c(NS(C)(=O)=O)nc3n2-c2c(OC)cccc2OC)n1 [Example 146, N-(1-(2,6-Dimethoxyphenyl)-2-(6-ethoxypyridin-2-yl)-5-fluoro-1H-imidazo[4,5-b]pyrazin-6-yl)methanesulfonamide]	7.00 to 9.00
